These results are taken from ChEMBL document CHEMBL4043103, “Design, synthesis, and biological evaluation of some novel indolizine derivatives as dual cyclooxygenase and lipoxygenase inhibitor for anti-inflammatory activity” (Bioorg Med Chem, 2017).

Bounds are passed on as bounds.

The species named for series [1] is Rattus norvegicus. The experiment in a line: animal or person. To be noted: Wistar, po, read-out: INH.
A short description of series [2]: Solubility of the compound in methanol by shake-flask method. The series is classed as physicochemical.
Series [3] is described as follows: Solubility of the compound in chloroform by shake-flask method. The series is classed as physicochemical.
Series [4] can be described thus: n-Octanol-water partition coefficient, log P of the compound by shake-flask method. The series is classed as physicochemical.
Series [5] is filed under the species Rattus norvegicus. The experiment in a line: animal or person. The conditions noted are these: Wistar, po, read-out: INH. The source holds these as a separate data set.
Series [6] is filed under the species Rattus norvegicus. The experiment in a line: animal or person. To be noted: Wistar, po, read-out: INH. The source holds these as a separate data set.
Series [7] is described as follows: Solubility of the compound in ethanol by shake-flask method. The series is classed as physicochemical.
The nature of series [8]: Solubility of the compound in DMSO by shake-flask method. The series is classed as physicochemical.
Series [9] can be described thus: Solubility of the compound in acetone by shake-flask method. The series is classed as physicochemical.
The species entered for series [10] is Rattus norvegicus. The experiment in a line: animal or person. The conditions noted are these: Wistar, po, read-out: INH. This is another data set of the same source.
The nature of series [11]: Solubility of the compound in water by shake-flask method. The series is classed as physicochemical. To be noted: buffer.
Series [12] has as its target T1, Prostaglandin G/H synthase 2 (Homo sapiens, UniProt P35354).
T1 sequence (P35354 whole entry): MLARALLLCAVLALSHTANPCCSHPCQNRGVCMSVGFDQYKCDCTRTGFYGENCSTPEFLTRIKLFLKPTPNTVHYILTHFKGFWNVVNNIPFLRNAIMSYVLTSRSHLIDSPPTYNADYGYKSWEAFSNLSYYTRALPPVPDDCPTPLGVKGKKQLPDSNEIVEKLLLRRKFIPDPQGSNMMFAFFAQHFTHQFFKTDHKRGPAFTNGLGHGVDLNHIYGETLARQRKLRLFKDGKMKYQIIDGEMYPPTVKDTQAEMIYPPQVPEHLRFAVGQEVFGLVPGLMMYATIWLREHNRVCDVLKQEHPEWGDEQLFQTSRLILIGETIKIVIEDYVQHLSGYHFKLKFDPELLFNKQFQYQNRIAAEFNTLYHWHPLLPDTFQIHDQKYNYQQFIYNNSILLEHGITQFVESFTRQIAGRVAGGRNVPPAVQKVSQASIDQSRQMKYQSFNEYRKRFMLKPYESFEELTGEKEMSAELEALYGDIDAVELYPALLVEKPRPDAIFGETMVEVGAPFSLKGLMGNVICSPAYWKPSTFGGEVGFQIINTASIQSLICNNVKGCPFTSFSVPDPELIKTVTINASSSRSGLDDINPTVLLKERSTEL
The experiment in a line: Non noncompetitive inhibition of human COX-2 preincubated for 5 mins followed by arachidonic acid substrate addition by Lineweaver-Burk plot analysis.

For series [13], the species on record is Rattus norvegicus. The experiment in a line: Gastrointestinal toxicity in adjuvant-induced Wistar rat arthritis model assessed as ulcer index treated for 7 days measured on day 21 post arthritis induction. To be noted: in vivo, 168 h.
In series [14] the target is T1, Prostaglandin G/H synthase 2.
Description: Inhibition of human COX-2 preincubated for 5 mins followed by arachidonic acid substrate addition by colorimetric enzyme immunoassay
Series [15] is described as follows: Inhibition of soybean lipoxygenase preincubated for 5 mins followed by linoleic acid substrate addition measured after 20 mins by spectrophotometric method. Set-up: species or system Glycine max.
Series [16] is described as follows: Non noncompetitive inhibition of soybean lipoxygenase preincubated for 5 mins followed by substrate addition measured after 20 mins by Lineweaver-Burk plot analysis. The arrangement: species or system Glycine max.
Series [17] has as its target T2, Prostaglandin G/H synthase 1 (Ovis aries, UniProt P05979).
T2 sequence (P05979 whole entry): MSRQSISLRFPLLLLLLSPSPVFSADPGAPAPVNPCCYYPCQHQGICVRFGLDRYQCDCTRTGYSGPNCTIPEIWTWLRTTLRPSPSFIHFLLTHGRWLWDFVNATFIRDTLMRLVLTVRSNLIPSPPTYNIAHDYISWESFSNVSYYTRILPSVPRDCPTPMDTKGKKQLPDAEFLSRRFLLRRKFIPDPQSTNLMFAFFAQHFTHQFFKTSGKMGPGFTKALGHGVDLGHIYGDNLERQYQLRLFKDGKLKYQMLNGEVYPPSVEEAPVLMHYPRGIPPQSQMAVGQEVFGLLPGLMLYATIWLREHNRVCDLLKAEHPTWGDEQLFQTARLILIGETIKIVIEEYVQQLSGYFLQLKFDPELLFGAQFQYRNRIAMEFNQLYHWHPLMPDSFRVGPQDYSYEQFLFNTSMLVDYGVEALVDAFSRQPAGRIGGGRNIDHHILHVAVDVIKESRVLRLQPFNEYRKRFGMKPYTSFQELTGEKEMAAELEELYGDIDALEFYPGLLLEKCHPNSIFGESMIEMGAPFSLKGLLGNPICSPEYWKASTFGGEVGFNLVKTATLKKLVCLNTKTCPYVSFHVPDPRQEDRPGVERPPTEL
Description: Inhibition of ovine COX-1 preincubated for 5 mins followed by arachidonic acid substrate addition by colorimetric enzyme immunoassay

A further series has as its system RAW264.7. The experiment in a line: Anti-inflammatory activity in mouse RAW264.7 cells assessed as reduction in LPS-induced NO production by Griess assay. The series is classed as functional, cell-based.
Series [18] deals with Rattus norvegicus. The experiment in a line: Anti inflammatory activity in carrageenan-induced Wistar rat paw edema model assessed as inhibition of left hind paw edema size at 10 mg/kg, po pretreated for 1 hr followed by carrageenan challenge measured after 6 hrs by plethysmometry method (reference value: 0%). The series is classed as functional.
Series [19] relates to Rattus norvegicus. The experiment in a line: Anti inflammatory activity in carrageenan-induced Wistar rat paw edema model assessed as inhibition of left hind paw edema size at 10 mg/kg, po pretreated for 1 hr followed by carrageenan challenge measured after 2 hrs by plethysmometry method (reference value: 0%). The series is classed as functional.
Series [20] relates to Rattus norvegicus. The experiment in a line: Anti inflammatory activity in carrageenan-induced Wistar rat paw edema model assessed as inhibition of left hind paw edema size at 10 mg/kg, po pretreated for 1 hr followed by carrageenan challenge measured after 4 hrs by plethysmometry method (reference value: 0%). The series is classed as functional.
In series [21] the test system is Rattus norvegicus. The experiment in a line: Anti inflammatory activity in arachidonic acid-induced Wistar rat paw edema model assessed as inhibition of right hind paw edema thickness at 10 mg/kg, po pretreated for 30 mins followed by arachidonic acid challenge measured after 1 hr (reference value: 0%). The series is classed as functional.

`NCc1c(-c2ccc(C(F)(F)F)cc2)c(C(=O)O)c2ccccn12`: the inhibition in vivo at 10 mg/kg in the series filed under Rattus norvegicus [1] is 62.8%; in the series listed under Rattus norvegicus [5], 40%; in the series filed under Rattus norvegicus [6], 67.7%; in the series listed under Rattus norvegicus [10] it was 42.8%. Also, the solubility result is “Soluble” in series [2]; “Insoluble” in [3]; “Soluble” in series [7]; “Soluble” in series [8]; “Soluble” in series [9]; “Soluble” in series [11]. Further, the logP in series [4] was 2.06.
Consider `Cc1c(C(=O)O)c2ccccn2c1CN`, for which the inhibition in vivo at 10 mg/kg in the series listed under Rattus norvegicus [1] is 44.2%; in the series filed under Rattus norvegicus [5], 23.1%; in the series filed under Rattus norvegicus [6] it was 38.5%; in the series listed under Rattus norvegicus [10], 41.3%. Also, the solubility result in series [2] is “Soluble”; in [3], “Insoluble”; in [7] it was “Soluble”; in series [8], “Soluble”; in [9] it was “Soluble”; in series [11], “Soluble”. In addition, the lipophilicity (logP) in series [4] was determined as 0.72.
In the case of `CCCCc1c(C(=O)O)c2ccccn2c1CN`, the inhibition in vivo at 10 mg/kg turned out to be 24.4% in the series filed under Rattus norvegicus [1], 15.4% in the series listed under Rattus norvegicus [5], 23.9% in the series listed under Rattus norvegicus [6] and 23.8% in the series filed under Rattus norvegicus [10]. Further, the solubility entry in [2] was “Soluble”; in [3], “Insoluble”; in series [7] it was “Soluble”; in series [8] it was “Soluble”; in series [9], “Soluble”; in [11] it was “Soluble”. Also, in series [4], the logP stood at 2.07.
For `NCc1c(-c2ccccc2)c(C(=O)O)c2ccccn12`, the Ki in series [12] is 0.92 µM; in series [16] it was 0.72 µM. For the same compound, the inhibition in vivo at 10 mg/kg in the series listed under Rattus norvegicus [1] stood at 90.5%; in the series filed under Rattus norvegicus [5], 66.2%; in the series listed under Rattus norvegicus [6], 88.6%; in the series listed under Rattus norvegicus [10] it was 68.2%. The solubility result in series [2] is “Soluble”; in series [3] it was “Insoluble”; in series [7], “Soluble”; in [8] it was “Soluble”; in [9] it was “Soluble”; in [11], “Soluble”. In [4], this compound displayed a logP of 1.85. The UI in the series filed under Rattus norvegicus [13] came to 10. For the same compound, the figures for the concentration for half-maximal inhibition (IC50) in series [14], in [15] and in [17] were 14.9 µM, 13.1 µM and over 50 µM, respectively.
On to `CCc1c(C(=O)O)c2ccccn2c1CN`, for which the inhibition in vivo at 10 mg/kg in the series filed under Rattus norvegicus [1] was determined as 32.5%; in the series filed under Rattus norvegicus [5], 20.2%; in the series listed under Rattus norvegicus [6], 34.3%; in the series filed under Rattus norvegicus [10] it was 30.2%. Also, the solubility entry was “Soluble” in series [2]; “Insoluble” in series [3]; “Soluble” in series [7]; “Soluble” in [8]; “Soluble” in series [9]; “Soluble” in series [11]. The same compound yielded a logP in series [4] of 1.45.
For the compound `NCc1c(-c2ccc(F)cc2)c(C(=O)O)c2ccccn12`, the inhibition in vivo at 10 mg/kg in the series filed under Rattus norvegicus [1] amounted to 89.5%; in the series listed under Rattus norvegicus [5], 61.5%; in the series filed under Rattus norvegicus [6], 86.4%; in the series listed under Rattus norvegicus [10] it was 69.8%. Further, the solubility entry is listed as “Soluble” in [2]; “Insoluble” in series [3]; “Soluble” in series [7]; “Soluble” in series [8]; “Soluble” in series [9]; “Soluble” in series [11]. In series [4], this compound registered a logP of 2.12.
For the compound `Cc1ccc2n1[C@@H]1[C@H]3O[C@]([C@H](C)O)(C=C2)[C@H]1c1cc([C@H]2C=Cc4ccc(C)n4[C@@H]2C)cn1[C@@H]3C`, the IC50 in the series with RAW264.7 worked out at 5.31 µM.
Turning to `COc1cc(-c2c(C(=O)O)c3ccccn3c2CN)ccc1O`, the inhibition in vivo at 10 mg/kg in the series listed under Rattus norvegicus [1] was determined as 63.9%; in the series filed under Rattus norvegicus [5], 36.9%; in the series listed under Rattus norvegicus [6], 59.4%; in the series listed under Rattus norvegicus [10] it was 50.8%. For the same compound, the solubility entry is listed as “Soluble” in series [2]; “Insoluble” in series [3]; “Soluble” in series [7]; “Soluble” in series [8]; “Soluble” in [9]; “Soluble” in [11]. Moreover, in [4], the logP was 1.55.
With `NCc1c(-c2ccc3c(c2)OCO3)c(C(=O)O)c2ccccn12`, the inhibition in vivo at 10 mg/kg in the series listed under Rattus norvegicus [1] stood at 74.4%; in the series filed under Rattus norvegicus [5], 23.1%; in the series listed under Rattus norvegicus [6], 78.1%; in the series filed under Rattus norvegicus [10] it was 61.9%. The solubility entry in series [2] is “Soluble”; in series [3], “Insoluble”; in series [7] it was “Soluble”; in series [8], “Soluble”; in series [9] it was “Soluble”; in series [11] it was “Soluble”. For the same compound, the logP in [4] was determined as 2.07.
Consider `Cc1ccc(-c2cc(C(F)(F)F)nn2-c2ccc(S(N)(=O)=O)cc2)cc1` [CELECOXIB], for which, in the series filed under Rattus norvegicus [13], the UI was 53.
Consider `O=C(O)Cc1ccccc1Nc1c(Cl)cccc1Cl` [DICLOFENAC], for which the inhibition in vivo at 10 mg/kg in the series on Rattus norvegicus [18] was found to be 90.9%; with Rattus norvegicus [19], 74.6%; in the series with Rattus norvegicus [20] it was 91.6%. Moreover, the UI in the series listed under Rattus norvegicus [13] turned out to be 46.
Take `CC1(C)Cc2c(-c3ccccc3)c(-c3ccc(Cl)cc3)c(CC(=O)O)n2C1` [LICOFELONE]: the IC50 in series [15] is 0.21 µM; in series [17] it was 0.16 µM.
`CC(c1cc2ccccc2s1)N(O)C(N)=O` (stereo not given) [ZILEUTON]: the UI in the series filed under Rattus norvegicus [13] is listed as 52. The inhibition in vivo at 10 mg/kg in the series on Rattus norvegicus [21] worked out at 72.3%. Moreover, the midpoint of inhibition in series [15], the IC50, lay at 3.43 µM.
